Reference: patent US10662146B2, “Prodrugs of fencamfamine” (Praxis Bioresearch, LLC, priority 2015, dated 2020)

Experiment: Single dose oral PK study in male Sprague Dawley rats (plasma by LC-MS/MS)
Type: in vivo
Settings: mean; for Plasma concentration of PRX-002 (−) Isomer: PRX-002 (−) Isomer oral 5 mg/kg b.w.
How it was run: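 Fasted adult male Sprague Dawley rats (8-10 weeks) got a single oral dose of prodrug, as Tween 80/0.5% CMC suspension, equivalent to 5 mg/kg PRX-002 (up to 10 or 15 mg/kg in some studies). Retro-orbital K2EDTA blood was sampled over 24 h. Plasma fencamfamine was measured by LC-MS/MS.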

## CCN[C@@H]1[C@@H]2CC[C@@H](C2)[C@H]1c1ccccc1 [PRX-002 (−) Isomer, (1R,2R,3S,4S)—N-Ethyl-3-phenylbicyclo[2.2.1]heptan-2-amine, reference compound]
0.00 h
  Plasma concentration of PRX-002 (−) Isomer: 0.00
0.08 h
  Plasma concentration of PRX-002 (−) Isomer: 0.00
0.25 h
  Plasma concentration of PRX-002 (−) Isomer: 50.20
0.50 h
  Plasma concentration of PRX-002 (−) Isomer: 159.35
1.00 h
  Plasma concentration of PRX-002 (−) Isomer: 170.35
2.00 h
  Plasma concentration of PRX-002 (−) Isomer: 101.07
4.00 h
  Plasma concentration of PRX-002 (−) Isomer: 21.30
6.00 h
  Plasma concentration of PRX-002 (−) Isomer: 0.00
24.00 h
  Plasma concentration of PRX-002 (−) Isomer: 0.00
PRX-002 (−) Isomer oral 5 mg/kg
  AUC% extrap of PRX-002 (−) Isomer: 12.904 ± 1.8410%
male, Sprague Dawley, rat, in vivo, po, 5 mg/kg, PRX-002 (−) Isomer oral 5 mg/kg, read-out: AUCinf of PRX-002 (−) Isomer
  AUC(0-inf): 427 ± 122 ng·h/mL
male, Sprague Dawley, rat, in vivo, po, 5 mg/kg, PRX-002 (−) Isomer oral 5 mg/kg, read-out: AUClast of PRX-002 (−) Isomer
  AUC(0-t): 371 ± 99.5 ng·h/mL
male, Sprague Dawley, rat, in vivo, po, 5 mg/kg, PRX-002 (−) Isomer oral 5 mg/kg, read-out: Cmax of PRX-002 (−) Isomer
  Cmax: 176 ± 47.5 ng/mL
male, Sprague Dawley, rat, in vivo, po, 5 mg/kg, PRX-002 (−) Isomer oral 5 mg/kg, read-out: MRTlast of PRX-002 (−) Isomer
  MRT last: 1.47 ± 0.104 h
male, Sprague Dawley, rat, in vivo, po, 5 mg/kg, PRX-002 (−) Isomer oral 5 mg/kg, read-out: T1/2 of PRX-002 (−) Isomer (converted)
  half-life: 1.86 ± 0.132 h
male, Sprague Dawley, rat, in vivo, PRX-002 (−) Isomer oral 5 mg/kg, read-out: Tmax of PRX-002 (−) Isomer
  Tmax: 0.833 ± 0.289 h
